This test has as its system tinnitus. As to the kind of experiment: clinical use of intranasal oxytocin formulations to treat tinnitus. The format is in vivo, human. From the text:
In an aspect, this disclosure provides a method for treating tinnitus. The method comprises administering intranasally to an individual a composition comprising or consisting essentially of oxytocin, wherein such administration results in treatment of tinnitus. The effectiveness of treatment of tinnitus may be monitored by quantifying tinnitus, such as by self-evaluation using clinically accepted techniques. An example is the Tinnitus Handicap Inventory (“THI”), a validated and published measurement technique. (Newman et al., Arch Otolaryngol Head Neck Surg, 1996, February 122(2), 143-8). In an embodiment, the improvement in an individual using THI may comprise an improvement of at least 10%. In various embodiments, the improvement may comprise from 10-100%, such as at least 20, 30, 40, 50, 60, 70, 80, 90, 95, or 99%. This example describes clinical use of the present formulations to treat tinnitus. […] The formulation contained oxytocin, magnesium chloride, citric acid, and sodium citrate in sterile water. […] The dose was then increased to 45 IU (3 sprays of 15 IU) 4 times daily. […] A thickener was then added to the formulation keeping the oxytocin amount the same. […] Their score on the Tinnitus Handicap Inventory reduced from a pretreatment score of 96 (meaning a catastrophic level) to a current score of 14 (meaning mild or no tinnitus). The patient has remained improved over 1 year since initiating therapy. Their current dose is 22.5 IU in each nostril 4 times daily. Since their tinnitus occurs in distinct cycles, at times when tinnitus severity is loudest, they increase the dose to 5 times daily for 2 days. […] Their current handicap inventory is 8. […] The dose was increased to 45 IU 4 times daily resulting in a decrease in tinnitus volume by approximately 30%. In another patient, who developed constant tinnitus after a neck injury one year ago, a dose of 45 IU (22.5 IU in each nostril) 4 times daily was used for 30 days and is still ongoing. It has provided about 15% improvement. […] In another patient with constant tinnitus a dose of 30 IU 4 times daily has been started and treatment is ongoing.

Where [1] appears, read: patient with constant tinnitus, 30 IU 4 times daily, after 2 weeks.
[2] abbreviates: second patient, 45 IU twice daily.

One compound from patent publication US11241477B2, “Oxytocin compositions for treatment of tinnitus” (New York University, priority 2019, dated 2022) can be followed below.

Consider `CC[C@H](C)[C@@H]1NC(=O)[C@H](Cc2ccc(O)cc2)NC(=O)[C@@H](N)CSSC[C@@H](C(=O)N2CCC[C@H]2C(=O)N[C@@H](CC(C)C)C(=O)NCC(N)=O)NC(=O)[C@H](CC(N)=O)NC(=O)[C@H](CCC(N)=O)NC1=O` [oxytocin], for which the “time remained improved since initiating therapy” value (first patient) is “over 1 year”. The current handicap inventory (first patient, 22.5 IU in each nostril 4 times daily, 5 times daily for 2 days when loudest) amounted to 8. The compound further displayed a time without tinnitus (first patient, 22.5 IU in each nostril 4 times daily, 5 times daily for 2 days when loudest, past 3 months) of no more than 10 days. The relief of tinnitus result (first patient, 45 IU (3 sprays of 15 IU) 4 times daily, no thickener) is “significant relief”. Further, the patient-reported benefit entry (first patient, 60 IU daily (30 IU twice daily), oxytocin, magnesium chloride, citric acid, sodium citrate in sterile water) is recorded as “partial benefit”. Moreover, under “first patient, formulation with thickener, pretreatment score 96 (catastrophic level)”, the “score on the Tinnitus Handicap Inventory” value was found to be 14. In addition, the relief of tinnitus result (first patient, initial dose of less than 20 IU daily, intranasal) is recorded as “did not provide any relief”. Besides, where the note is “first patient, thickener added to the formulation, oxytocin amount the same (45 IU 4 times daily)”, the tinnitus free period result is “several days of tinnitus free period”. In addition, under “lower amounts of oxytocin (such as under 20 IU per day)”, the relief of tinnitus result is recorded as “did not result in any significant relief”. For the same compound, the improvement result (patient with constant tinnitus after neck injury, 45 IU (22.5 IU in each nostril) 4 times daily for 30 days) is recorded as “about 15%”. For the same compound, the tinnitus volume entry (patient with constant tinnitus after neck injury, dose raised to 5 times daily on occasions) is given as “diminished tinnitus volume”. Also, under setting [1], the “time without noticing the tinnitus” value is reported as “several hours per day without noticing the tinnitus” and the tinnitus intensity entry is “tinnitus intensity has lowered”. Also, under “patient with drug-caused tinnitus, 30 IU twice daily”, the benefit result is “without benefit”. In addition, the “decrease in tinnitus volume” value (patient with drug-caused tinnitus, 45 IU 4 times daily) is reported as “approximately 30%”. Moreover, under setting [2], the benefit result was “significant benefit”, the “reduction of tinnitus volume” value is listed as 45-60%, the “time remaining improved on dosing schedule” value is listed as “more than a year” and the tinnitus free days entry is reported as “some days in which they are tinnitus free”.
